Patent US4307189A, “Method for the quantitative determination of terminal deoxynucleotidyl transferase in biological samples” (priority 1980, dated 1981)
Read-outs that look alike come from different tables or passages of the source.

Columns and labels:
TdT = conditions: cited from earlier work
[1] = tested on: other cellular DNA polymerases; conditions: 100 mM ATP added (Mertelsmann); cited from earlier work
[2] = tested on: polynucleotide phophorylase; conditions: cited from earlier work
E. coli DNA polymerase I = E. coli DNA polymerase I (Escherichia coli, UniProt P00582); assay: Incorporation of tritium labeled nucleotide into acid insoluble polydeoxynucleotide by purified E. coli DNA polymerase I; type: biochemical; conditions: purified E. coli DNA polymerase I sample, 90 minute incubation period, tritium labeled substrate
Sequence of E. coli DNA polymerase I (P00582 whole entry): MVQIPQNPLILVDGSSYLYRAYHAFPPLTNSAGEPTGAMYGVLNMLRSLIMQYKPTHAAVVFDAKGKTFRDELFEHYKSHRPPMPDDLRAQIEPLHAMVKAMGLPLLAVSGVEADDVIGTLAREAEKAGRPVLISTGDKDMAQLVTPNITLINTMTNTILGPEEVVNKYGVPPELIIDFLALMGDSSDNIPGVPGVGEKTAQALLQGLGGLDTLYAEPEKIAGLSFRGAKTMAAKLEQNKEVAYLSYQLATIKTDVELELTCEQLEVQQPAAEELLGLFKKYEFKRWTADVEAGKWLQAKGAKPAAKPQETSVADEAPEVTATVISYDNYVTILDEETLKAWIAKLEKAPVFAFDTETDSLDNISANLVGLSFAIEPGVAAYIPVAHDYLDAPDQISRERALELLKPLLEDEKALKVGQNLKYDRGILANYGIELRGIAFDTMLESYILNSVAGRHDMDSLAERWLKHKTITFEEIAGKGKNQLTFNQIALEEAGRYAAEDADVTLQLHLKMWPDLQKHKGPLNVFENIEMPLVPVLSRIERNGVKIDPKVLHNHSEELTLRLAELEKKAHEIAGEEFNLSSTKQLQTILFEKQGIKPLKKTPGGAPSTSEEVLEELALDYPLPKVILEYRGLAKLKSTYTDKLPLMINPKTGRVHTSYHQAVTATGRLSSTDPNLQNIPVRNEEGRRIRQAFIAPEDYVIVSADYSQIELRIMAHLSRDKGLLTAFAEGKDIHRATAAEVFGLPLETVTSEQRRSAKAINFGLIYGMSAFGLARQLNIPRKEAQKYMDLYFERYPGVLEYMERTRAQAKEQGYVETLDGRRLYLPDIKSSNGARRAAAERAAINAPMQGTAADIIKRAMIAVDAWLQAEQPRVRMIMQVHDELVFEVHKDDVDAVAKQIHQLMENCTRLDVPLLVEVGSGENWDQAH
Experimental: (§1) To illustrate that suitable modified deoxynucleoside triphosphates and/or single stranded oligodeoxynucleotides which have impaired basing pairing abilities, as described above, are specific to TdT, tritium labeled ethenodeoxyadenosine triphosphate (etheno dATP) and tritium labeled deoxyadenosine triphosphate (dATP) were appropriately incubated with a purified TdT enzyme sample and with a purified E. coli DNA polymerase I sample.

[3] = tested on: Terminal Deoxynucleotidyl Transferase (TdT); assay: Incorporation of tritium labeled nucleotide into acid insoluble polydeoxynucleotides by purified TdT; type: biochemical; conditions: purified TdT enzyme sample, 90 minute incubation period, tritium labeled substrate
Experimental: as §1

Compound	incorporation into acid insoluble polydeoxynucleotide (E. coli DNA polymerase I)	incorporation into acid insoluble polydeoxynucleotides [3]	also measured
Nc1ncnc2c1ncn2[C@@H]1O[C@H](COP(=O)(O)OP(=O)(O)OP(=O)(O)O)[C@@H](O)[C@H]1O [ATP, adenosine triphosphate]			inhibition of TdT activity (TdT; 100 mM ATP added (Mertelsmann)): specifically inhibits TdT; effect on other cellular DNA polymerases [1]: without affecting other cellular DNA polymerases
6-dimethylaminoadenine			substrate for template independent RNA polymerase, polynucleotide phophorylase [2]: remains a substrate
Nc1ncnc2c1ncn2[C@H]1C[C@H](O)[C@@H](COP(=O)(O)OP(=O)(O)OP(=O)(O)O)O1 [dATP, deoxyadenosine triphosphate]	normally and appreciably incorporated	progressive incorporation	
O=P(O)(O)OP(=O)(O)OP(=O)(O)OC[C@H]1O[C@@H](n2cnc3c2ncn2ccnc32)C[C@@H]1O [etheno-dATP, 1,N^6 -ethenodeoxy-adenosine triphophate]	no detectable incorporation	progressive incorporation	
CCN1C(=O)C=CC1=O [N-ethylmaleimide]			inhibition of TdT activity (TdT; 10% ethanol and 10 mM N-ethylmaleimide added (Coleman)): completely inhibit TdT activity
